In assay [1] the target is T1, Type-VI α-amylase (porcine pancreas) (Sus scrofa, UniProt P00690).
T1 construct: purchased Sigma Aldrich (Darmstadt, Germany); host or cells: porcine pancreas
T1 sequence (P00690 16-511): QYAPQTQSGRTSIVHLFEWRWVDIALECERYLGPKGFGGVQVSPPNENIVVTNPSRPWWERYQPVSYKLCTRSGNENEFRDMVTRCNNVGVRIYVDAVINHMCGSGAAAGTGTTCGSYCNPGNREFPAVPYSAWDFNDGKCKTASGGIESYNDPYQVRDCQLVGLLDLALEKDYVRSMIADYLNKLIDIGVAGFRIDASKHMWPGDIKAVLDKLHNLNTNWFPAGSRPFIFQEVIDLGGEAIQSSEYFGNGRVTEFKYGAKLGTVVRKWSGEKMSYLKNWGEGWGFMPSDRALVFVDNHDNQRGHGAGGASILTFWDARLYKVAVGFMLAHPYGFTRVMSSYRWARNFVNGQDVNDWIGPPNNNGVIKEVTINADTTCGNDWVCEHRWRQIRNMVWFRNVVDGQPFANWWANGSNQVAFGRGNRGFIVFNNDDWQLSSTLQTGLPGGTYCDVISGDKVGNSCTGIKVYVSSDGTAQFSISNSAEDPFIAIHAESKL
Description: In vitro α-amylase inhibition assay (DNSA). The format is biochemical. The note with it: for inhibition at 31.05 µg/mL / inhibition at 62.5 µg/mL / inhibition at 125 µg/mL / inhibition at 250 µg/mL / inhibition at 500 µg/mL / inhibition at 1000 µg/mL: read-out: % α-Amylase Inhibition Mean ± SEM; for IC50: linear regression of % inhibition vs concentration. The protocol: The α-amylase inhibition activity of morin was assessed using 3, 5-dinitrosalicylic acid (DNSA) assay. Morin, phloroglucinol, and 1-hexyl benzene were dissolved in mixture of 10% DMSO, 0.02M Na2HPO4/NaH2PO4 buffer, and 0.006M NaCl (pH 6.9) and finally dilutions (31.05, 62.5, 125, 250, 500 and 1000 µg/mL) were prepared. In total, 200 μL α-amylase (2 units/mL) was mixed with 200 μL morin and incubated at 30 °C for 10 min. After that, 200 μL starch (1%) was added to each serial dilution and incubated for 3 min. To stop the reaction 200 μL sodium potassium tartrate tetrahydrate reagent, 2M NaOH, and […] DNSA (96mM) reagent were added to the reaction mixture. The reaction mixtures were boiled for 10 min at 85–90 °C in a water bath. After cooling the mixture was diluted with 5mL distilled water and finally at 540 nm absorbance was recorded. A blank solution was prepared containing only isolated compound morin but no enzyme. […] The α-amylase enzyme inhibitory activity was calculated by the following Equation (2): (2) % α − amylase Inhibition =control absorbance−sample absorbance/control absorbance×100
(§1) All the in vitro and in vivo experiments were analyzed in three replicates and determined as mean ± SEM. Student’s t-test and one way ANOVA followed by Dunnett’s post hoc multiple comparison test was used. p ≤ 0.05 were considered as significant. Linear regression analysis was used to calculate the IC50 value for % DPPH, ABTS, α-amylase, and α-glucosidase inhibition against the different concentrations of the test samples by means of Excel program 2007.

In assay [2] the target is Type-I α-glucosidase (Baker Yeast) (Saccharomyces cerevisiae, UniProt P53341). Briefly: In vitro α-glucosidase inhibition assay (PNPG). Type of assay: biochemical. The note with it: read-out: % α-Glucosidase Inhibition Mean ± SEM.
Description: Chemicals such as Tween-80 (Scharlau-chem., Barcelona, Spain), normal saline solution (Utsoka Pharma, Las Bela Baluchistan, Pakistan), lipid profile tests kits (Human, Hamburg, Germany), renal profile tests kits, and antioxidant enzymes kits (Biomed: Germany; diagnostic) were used in in vivo study. Mueller Hinton (MH) agar and broth (Merck, Modderfontein, South Africa) were used to culture the bacterial strains. Various solvents such as methanol, n-hexane, ethyl acetate, and chloroform (Merck, Darmstadt, Germany) were also used in this study.
The α-glucosidase inhibition potential of morin was determined according to the reported method with minor changes. The reaction mixture was prepared by taking 100 μL α-glucosidase (0.5 unit/mL), 600 μL phosphate buffer (0.1 M; pH 6.9), and 50 μL of isolated compounds (morin, phloroglucinol, and 1-hexyl benzene) with serial dilutions of 31.05, 62.5, 125, 250, 500 and 1000 µg/mL. All the reaction mixtures were incubated at 37 °C for 15 min. The enzymatic reactions were started by adding 100 μL substrate (p-nitro-phenyl-α-D-glucopyranoside) solution (5 mM) formed in phosphate buffer (0.1 M; pH 6.9), finally incubated at 37 °C for 15 min. The reaction was completed by adding sodium carbonate (400 μL; 0.2 M) solution and then at 405 nm absorbance was measured. The blank solution was prepared containing only isolated compounds without α-glucosidase. Percent α-glucosidase inhibition potential was calculated using Equation (3): (3) % α − glucosidase Inhibition =control absorbance−sample absorbance/control absorbance×100
as §1

For assay [3], the system named is Staphylococcus aureus. Description: Agar well diffusion, zone of inhibition. Type of assay: cell-based. The note with it: 37 °C, 24 h; for Zone of Inhibition: 100 µg/mL. On the procedure:
The antibacterial activity of the isolated compounds (morin, phloroglucinol, and 1-hexyl benzene) was determined using agar well diffusion method. Muller–Hinton agar media was prepared and autoclaved at 15 lbs pressure for 20 min and cooled to 45 °C. […] The entire wells were filled with 100 µL of the isolated compounds (stock solution: 1 mg/mL) using microtiter-pipette and allowed to diffuse at room temperature for 2 h. The plates were incubated at 37 °C for 24 h. In the center hole, Imipenem was added which served as positive control. Simultaneous, addition of an equal concentration of DMSO solvent instead of isolated compounds was used as blank. After incubation, the zones of inhibition were measured in millimeters (mm) and mean values were calculated. The experiments were performed in triplicates.

Consider three molecules from PMC8348310, “Antioxidants Isolated from Elaeagnus umbellata (Thunb.) Protect against Bacterial Infections and Diabetes in Streptozotocin-Induced Diabetic Rat Model” (Molecules, 2021).

The structures appear in SMILES notation.

Type-I α-glucosidase (Baker Yeast), sequence (P53341 whole entry): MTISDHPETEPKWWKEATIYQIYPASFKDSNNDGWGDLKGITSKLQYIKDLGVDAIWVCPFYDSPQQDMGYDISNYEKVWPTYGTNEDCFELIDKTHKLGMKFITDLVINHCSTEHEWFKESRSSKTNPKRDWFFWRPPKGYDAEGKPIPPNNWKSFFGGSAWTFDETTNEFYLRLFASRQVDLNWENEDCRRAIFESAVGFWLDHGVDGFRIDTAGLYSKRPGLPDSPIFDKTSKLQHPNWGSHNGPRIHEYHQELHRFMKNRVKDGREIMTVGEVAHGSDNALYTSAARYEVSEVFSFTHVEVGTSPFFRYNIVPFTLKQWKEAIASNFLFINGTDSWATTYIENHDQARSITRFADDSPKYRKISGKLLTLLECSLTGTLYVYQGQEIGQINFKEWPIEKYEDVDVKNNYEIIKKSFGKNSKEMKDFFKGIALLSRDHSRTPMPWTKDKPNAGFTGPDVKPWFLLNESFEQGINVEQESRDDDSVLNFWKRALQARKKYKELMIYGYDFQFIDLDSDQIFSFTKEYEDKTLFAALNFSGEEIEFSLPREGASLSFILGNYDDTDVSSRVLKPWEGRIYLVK

For `CCCCCCc1ccccc1` [1-Hexyl benzene, 1-hexylbenzene], in assay [1], the inhibition at 31.05 µg/mL worked out at 22 ± 1.1%, the inhibition at 62.5 µg/mL turned out to be 28 ± 2.1%, the inhibition at 125 µg/mL is 37 ± 1.4% and the inhibition at 250 µg/mL stood at 44 ± 0.5%. In addition, in assay [1], the inhibition at 500 µg/mL was 49 ± 2.1%, the inhibition at 1000 µg/mL is 55 ± 1.5% and the IC50 is 709 µM. In assay [2], the inhibition at 31.05 µg/mL is 28 ± 1.2%, the inhibition at 62.5 µg/mL came to 32 ± 0.4%, the inhibition at 125 µg/mL turned out to be 39 ± 1.1% and the inhibition at 250 µg/mL was 45 ± 0.5%. For the same molecule, in assay [2], the inhibition at 500 µg/mL stood at 50 ± 1.2% and the inhibition at 1000 µg/mL stood at 58 ± 2.1%. In assay [3], the “Zone of Inhibition” value amounted to 3.4 ± 0.4 mm and the zone of inhibition at 100 µg/mL was determined as 3.4 ± 0.4 mm.
For the molecule `O=c1c(O)c(-c2ccc(O)cc2O)oc2cc(O)cc(O)c12` [Morin, 2-(2,4-Dihydroxyphenyl)-3,5,7-trihydroxychromen-4-one], in assay [1], the inhibition at 31.05 µg/mL turned out to be 37 ± 1.1%, the inhibition at 62.5 µg/mL worked out at 44 ± 2.1%, the inhibition at 125 µg/mL was found to be 54 ± 1.4% and the inhibition at 250 µg/mL is 60 ± 0.5%. Further, in assay [1], the inhibition at 500 µg/mL came to 67 ± 1.4%, the inhibition at 1000 µg/mL was determined as 75 ± 1.5% and the IC50 is 182 µM. Also, in assay [2], the inhibition at 31.05 µg/mL was determined as 42 ± 1.4%, the inhibition at 62.5 µg/mL was 48 ± 0.3%, the inhibition at 125 µg/mL was found to be 52 ± 0.5% and the inhibition at 250 µg/mL was 59 ± 1.4%. In assay [2], the inhibition at 500 µg/mL was 66 ± 0.4% and the inhibition at 1000 µg/mL was determined as 79 ± 1%. In assay [3], the “Zone of Inhibition” value came to 13 ± 0.4 mm and the zone of inhibition at 100 µg/mL was 13 ± 0.4 mm.
`Oc1cc(O)cc(O)c1` [Phloroglucinol, Benzene-1,3,5-triol]: in assay [1], the inhibition at 31.05 µg/mL was 29 ± 1%, the inhibition at 62.5 µg/mL amounted to 32 ± 1.4%, the inhibition at 125 µg/mL was determined as 39 ± 1.5% and the inhibition at 250 µg/mL stood at 42 ± 0.4%. Further, in assay [1], the inhibition at 500 µg/mL was determined as 55 ± 1.1%, the inhibition at 1000 µg/mL was found to be 63 ± 0.5% and the 50% inhibitory concentration (IC50) is 753 µM. Besides, in assay [2], the inhibition at 31.05 µg/mL turned out to be 27 ± 1%, the inhibition at 62.5 µg/mL was determined as 30 ± 1.4%, the inhibition at 125 µg/mL was determined as 37 ± 1.5% and the inhibition at 250 µg/mL was 43 ± 0.4%. Also, in assay [2], the inhibition at 500 µg/mL worked out at 48 ± 0.5% and the inhibition at 1000 µg/mL was found to be 55 ± 2.1%. Also, in assay [3], the “Zone of Inhibition” value is on record as 9.5 ± 2.1 mm and the zone of inhibition at 100 µg/mL worked out at 9.5 ± 2.1 mm.
